These results are taken from paper PMC8772768, “Phytochemical Analysis and Dermo-Cosmetic Evaluation of Cymbidium sp. (Orchidaceae) Cultivation By-Products” (Antioxidants, 2021).

≈ marks a conversion by molar mass, not a printed value. Entries after “also recorded” stand apart in the source; their conditions may differ.

One data set has as its target tyrosinase (Agaricus bisporus, UniProt C7FF04). In words: Tyrosinase inhibition assay (L-DOPA, dopachrome at 475 nm). It counts as biochemical. To be noted: pure compounds at 25, 100, 250 μM.
The next data set addresses T1, elastase (Sus scrofa, UniProt P00772).
T1 construct: purchased Sigma-Aldrich
In words: Elastase inhibition assay (N-succinyl-Ala-Ala-Ala-p-nitroanilide). It counts as biochemical. To be noted: for Elastase inhibitory activity (in words): pure compounds at 25, 100, 250 μM. The protocol:
Elastase inhibitory activity was measured by the presence of p-nitroaniline, after the reaction of the elastase enzyme with the substrate N-succinyl-Ala-Ala-Ala-p-nitroanilide, using a previously described protocol with minor modifications. At first, 70 μL of Trizma-base buffer (50 mM, pH = 7.5), 10 μL of the tested sample, and 5 μL of elastase solution (0.4725 U/mL dissolved in Trizma-base buffer) were mixed in the 96-well microplate and were incubated for 10 min at 37 °C, avoiding light exposure. Following this procedure, 15 μL of the substrate (2 mM dissolved in Trizma-base buffer) were added to every well of the plate, and then the plate was incubated for 30 min at 37 °C. The presence of p-nitroaniline was measured spectrophotometrically at 405 nm using a Tecan (Infinite 200 Pro series, Männedorf, Switzerland). The final tested concentrations of the extracts and pure compounds were 50 μg/mL, 100 μg/mL, 300 μg/mL, and 25 μΜ, 100 μΜ, 250 μΜ, respectively, dissolved in Trizma-base buffer, and the percentage of DMSO was under 5% of the total volume inside the plate. The negative control of the assay was 5% DMSO Trizma-base buffer, and the positive was Elastatinal (IC100 = 5 μg/mL and IC50 = 0.5 μg/mL), a strong irreversible competitive elastase inhibitor. Experiments were performed in triplicate.
The elastase inhibitory activity was calculated by the following equation:Inhibition (%) = (Abs A − Abs B)/(Abs A) × 100 where Abs A = Abs Control − Abs Control Blank and Abs B = Abs Sample − Abs Sample Blank. Abs Control is the absorbance of Trizma-base Buffer with 5% DMSO, elastase enzyme, and substrate, and Abs Sample is the absorbance of the tested sample in the Trizma-base buffer, elastase enzyme, and substrate. Blanks consist of all the above reagents except the enzyme.

In a further data set the test system is collagenase. In words: Collagenase inhibition assay (fluorescent MMP-2 substrate). Format: biochemical. To be noted: for Collagenase inhibitory activity (in words): pure compounds at 25, 100, 250 μM; for Collagenase inhibition: mean ± SD, n = 3. The procedure:
Collagenase inhibitory activity was determined by a previously described enzymatic method with slight modifications, based on the fluorescence of the MMP-2 substrate after its degradation by collagenase. In a 96-well black microplate, 50 μL of Tris-HCL buffer (10 mM, pH = 7.3), 25 μL of the tested sample (dissolved in Tris-HCL buffer), and 25 μL of collagenase solution (30 μg/mL dissolved in Tris-HCL buffer) were preincubated for 10 min at 37 °C, avoiding light exposure. Afterwards, 25 μL of MMP-2 substrate (50 μM dissolved in Tris-HCL buffer) were added, and the plate was incubated for an additional 30 min at 37 °C in the dark. The fluorescent intensity was measured at an excitation maximum of 320 nm and an emission maximum of 405 nm using a Tecan (Infinite 200 Pro series, Männedorf, Switzerland). Crude extracts were evaluated at 75 μg/mL, 150 μg/mL, and 300 μg/mL and pure compounds at 25 μΜ, 100 μΜ, and 250 μΜ, respectively, dissolved in PBS buffer, while the percentage of DMSO was under 5% of the total volume inside the plate. […] Experiments were performed in triplicate. The collagenase inhibitory activity was calculated by the following equation:Inhibition (%) = (Abs A − Abs B)/(Abs A) × 100 where Abs A = Abs Control − Abs Control Blank and Abs B = Abs Sample − Abs Sample Blank. Abs Control is the absorbance of Tris-HCL buffer with 5% DMSO, collagenase enzyme, and substrate, and Abs Sample is the absorbance of the tested sample in the Tris-HCL buffer, collagenase enzyme, and substrate. Blanks consist of all the above reagents except the enzyme.

For a further data set, the system named is mushroom tyrosinase. Also noted: method as in PMID 18503477. The following applies: cited from earlier work.
A short description of data set [1]: DPPH radical scavenging assay. Format: biochemical. To be noted: dissolved in DMSO. The procedure:
The final tested concentrations of the extracts were 5 μg/mL, 10 μg/mL, 20 μg/mL, 50 μg/mL, 100 μg/mL, 250 μg/mL, and 500 μg/mL dissolved in DMSO. […] Experiments were performed in triplicate. The antioxidant activity was calculated by the following equation:Inhibition (%) = (Abs A − Abs B)/(Abs A) × 100 where Abs A = Abs Control − Abs Control Blank and Abs B = Abs Sample − Abs Sample Blank. Abs Control is the absorbance of the negative control, and Abs Sample is the absorbance of the tested sample. Blanks consist of all the above reagents except the free radical reagent.

The test system of data set [2] is human cell lung cancer (NCI-H187) cell line. More on the design: method as in PMID 30450973. The following applies: cited from earlier work.

T1 sequence (P00772 27-266): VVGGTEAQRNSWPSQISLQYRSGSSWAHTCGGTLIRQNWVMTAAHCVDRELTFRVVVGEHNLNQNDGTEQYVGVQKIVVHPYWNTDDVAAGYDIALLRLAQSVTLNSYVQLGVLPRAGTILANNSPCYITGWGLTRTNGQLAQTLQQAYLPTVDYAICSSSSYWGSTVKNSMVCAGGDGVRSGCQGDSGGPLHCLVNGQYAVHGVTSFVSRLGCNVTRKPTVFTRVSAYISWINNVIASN
tyrosinase, sequence (C7FF04 1-392): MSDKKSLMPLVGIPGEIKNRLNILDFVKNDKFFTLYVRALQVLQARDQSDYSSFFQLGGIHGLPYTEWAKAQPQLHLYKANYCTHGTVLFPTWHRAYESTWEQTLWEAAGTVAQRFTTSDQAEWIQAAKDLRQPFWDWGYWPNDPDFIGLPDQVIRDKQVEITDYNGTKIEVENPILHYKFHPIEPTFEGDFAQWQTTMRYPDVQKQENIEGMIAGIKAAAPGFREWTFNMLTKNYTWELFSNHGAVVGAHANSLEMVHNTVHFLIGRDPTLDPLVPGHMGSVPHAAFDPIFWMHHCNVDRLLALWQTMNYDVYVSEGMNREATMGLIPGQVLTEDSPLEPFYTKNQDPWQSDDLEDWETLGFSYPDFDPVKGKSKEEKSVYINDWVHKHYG

Consider `COc1cc(CCc2cc(O)cc(O)c2)ccc1O` [Compound 9, tristin], for which the “Tyrosinase inhibitory activity (in words)” value at tyrosinase is given as “important anti-tyrosinase activity; also recorded: moderate, dose-dependent, inhibition activity”. Also, the “Elastase inhibitory activity (in words)” value on elastase is listed as “non-active”. Further, the “Collagenase inhibitory activity (in words)” value in the data set with collagenase was “non-active”.
`Cc1cc(O)cc(O)c1` [Compound 14, orcinol]: the “Elastase inhibitory activity (in words)” value at elastase is “inactive”. In addition, the “Collagenase inhibitory activity (in words)” value in the data set on collagenase is “inactive”.
Take `Oc1ccc(/C=C/c2cc(O)cc(O)c2)cc1` [resveratrol]: the “inhibitory effects on mushroom tyrosinase” value in the data set with mushroom tyrosinase was “potent inhibitory effects”.
With `O=C(O)c1cc(O)c(O)c(O)c1` [Gallic Acid], the “IC50 (DPPH, positive control)” value in data set [1] came out at 100 µg/mL (≈ 588 µM).
As a reminder, the IC50 is the concentration that gives 50% inhibition. Higher therefore signals weaker potency. In the case of `CC(C)C[C@H](NC(=O)N[C@H](C(=O)N[C@@H](CCC(N)=O)C(=O)N[C@@H](C)C=O)[C@@H]1CCNC(=N)N1)C(=O)O` [Elastatinal, reference compound], at elastase (positive control), the IC50 was 0.975 µM and the “IC100 (elastase, positive control)” value was determined as 5 µg/mL.
`COC1=CC(=O)C2=C(CCc3cccc(O)c32)C1=O` [Compound 6, ephemeranthroquinone B]: the “Collagenase inhibitory activity (in words)” value in the data set with collagenase is “dose-dependent anti-collagenase activity”.
`CC(C)C[C@H](NP(=O)(O)O[C@@H]1O[C@@H](C)[C@H](O)[C@@H](O)[C@H]1O)C(=O)N[C@@H](Cc1c[nH]c2ccccc12)C(=O)O` [Phosphoramidon, reference compound] displayed an IC50 against collagenase (positive control) of 6.9 µM.
`COc1ccc2c(ccc3cc(OC)c(O)c(OC)c32)c1` [Compound 2, 3-hydroxy-2,4,7-trimethoxy-phenanthrene]: the Collagenase inhibition in the data set on collagenase (pure compound at 25 μM) turned out to be 12.62 ± 1.48%; with collagenase (pure compound at 100 μM), 50.05 ± 2.67%; in the data set with collagenase (pure compound at 250 μM), 72.73 ± 1.38%. Further, the “Collagenase inhibitory activity (in words)” value in the data set on collagenase is “dose-dependent anti-collagenase activity”.
`COc1cc2c(c(OC)c1O)-c1c(O)cccc1CC2` [Compound 4, marylaurencinol A]: the “Collagenase inhibitory activity (in words)” value with collagenase is “dose-dependent anti-collagenase activity”.
Same read-out and setting: in the case of `COc1cc2ccc3cccc(O)c3c2c(OC)c1O` [Compound 1, bulbophyllanthrin] it was “dose-dependent anti-collagenase activity”.
With `COC1=CC(=O)c2c(ccc3cccc(O)c23)C1=O` [Compound 5, 5-hydroxy-2-methoxy-1,4-phenanthrenequinone], in data set [2], the cytotoxic activity entry was “cytotoxic activity”. For the same compound, the “Collagenase inhibitory activity (in words)” value in the data set on collagenase was “dose-dependent anti-collagenase activity”.
Turning to `COc1cc(O)cc(CCc2ccc(O)c(OC)c2)c1` [Compound 8, gigantol], the “Tyrosinase inhibitory activity (in words)” value on tyrosinase is “important anti-tyrosinase activity; also recorded: moderate, dose-dependent, inhibition activity”. Moreover, at elastase, the “Elastase inhibitory activity (in words)” value is listed as “non-active”. Moreover, the “Collagenase inhibitory activity (in words)” value with collagenase is reported as “non-active”.
